Test results: patent publication US10053453B2, “Compounds and their use as BACE inhibitors” (AstraZeneca AB, priority 2014, dated 2018)
Structures can show the parent of a compound that is named as a salt. Where two headings read alike, the source gives them in different places.

Assays:
Human BACE2 = target: T1, Human BACE2 (Homo sapiens, UniProt Q9Y5Z0); assay: TR-FRET assay; type: biochemical; details: enzyme 2.7 μg/mL, substrate 100 nM, pH4.5
T1 construct: the soluble part of the human β-Secretase2 (AA1-AA473) was cloned using BACE2(1-473)-(AVT)-Fc-pDEST12.2 mammalian expression vector; AVT linker (C); made in house
T1 sequence (Q9Y5Z0 21-473): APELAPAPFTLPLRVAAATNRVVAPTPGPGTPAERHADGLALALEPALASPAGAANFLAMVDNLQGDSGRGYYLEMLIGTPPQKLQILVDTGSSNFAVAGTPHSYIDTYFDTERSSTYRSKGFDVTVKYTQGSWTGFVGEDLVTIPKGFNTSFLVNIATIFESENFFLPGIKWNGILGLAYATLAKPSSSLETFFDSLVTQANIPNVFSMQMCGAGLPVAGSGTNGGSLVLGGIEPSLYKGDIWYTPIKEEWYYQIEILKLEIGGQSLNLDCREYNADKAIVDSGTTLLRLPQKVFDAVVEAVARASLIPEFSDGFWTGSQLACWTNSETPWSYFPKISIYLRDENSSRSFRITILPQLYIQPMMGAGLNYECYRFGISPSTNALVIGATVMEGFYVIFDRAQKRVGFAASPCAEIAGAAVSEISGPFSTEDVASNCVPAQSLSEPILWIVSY
Method: (§1) The β-secretase enzyme used in the TR-FRET was prepared as follows:
(§2) Human BACE1: the cDNA for the soluble part of the human β-Secretase1 (AA1-AA460) was cloned using the BACE1(1-460)-(AVT)-Fc-pGEN-IRES-neo mammalian expression vector. The gene was fused to the Fe domain of IgG1 (affinity tag) and stably cloned into HEK 293 cells. […]
(§3) A multidrop Combi was used for the liquid handling. Enzyme (7 μL) was added to the compound plate (containing 0.8 μL of compound in dimethylsulphoxide). The plate was incubated for 10 minutes. Substrate (8 μL) was then added, and the reaction proceeded for 17 minutes at r.t. The reaction was stopped with the addition of Stop solution (5.5 μL, NaOAC, pH 9). Fluorescence was measured on a Pherastar plate reader using HTRF module. […] 5 reference inhibitors with different affinities were used at all screen occasions in dose response.

SH-SY5Y cells = assay: sAPPβ release assay
Human BACE1 = target: T2, Human BACE1 (Homo sapiens, UniProt P56817); assay: Diluted TR-FRET assay; type: biochemical; details: 50 times less enzyme, 6.5 h reaction time at r.t.; read-out: IC50 BACE1 (dil. TR-FRET)
T2 construct: the soluble part of the human β-Secretase1 (AA1-AA460) was cloned using the BACE1(1-460)-(AVT)-Fc-pGEN-IRES-neo mammalian expression vector; AVT linker (C); made in house
T2 sequence (P56817 22-460): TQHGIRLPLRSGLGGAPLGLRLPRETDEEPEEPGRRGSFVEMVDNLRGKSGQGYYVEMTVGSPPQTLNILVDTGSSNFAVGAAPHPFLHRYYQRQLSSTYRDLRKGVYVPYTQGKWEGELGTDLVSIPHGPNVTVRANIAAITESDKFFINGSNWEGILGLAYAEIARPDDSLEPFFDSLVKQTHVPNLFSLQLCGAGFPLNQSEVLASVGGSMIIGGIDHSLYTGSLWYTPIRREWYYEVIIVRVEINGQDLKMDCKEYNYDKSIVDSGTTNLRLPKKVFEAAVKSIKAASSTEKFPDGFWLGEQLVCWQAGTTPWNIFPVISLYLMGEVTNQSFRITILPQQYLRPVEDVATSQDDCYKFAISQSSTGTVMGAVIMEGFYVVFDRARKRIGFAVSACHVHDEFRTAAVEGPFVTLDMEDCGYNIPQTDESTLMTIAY
Method: as §1, §2
as §3, with “Substrate (8 μL) was then added, and the reaction proceeded for 17 minutes at r.t.” left out

[1] = Homo sapiens, SH-SY5Y, read-out: IC50 Cell (sAPPβ release, nM), SH-SY5Y cells, compounds incubated 16-17 h
[2] = Homo sapiens, SH-SY5Y, read-out: IC50 Cell (sAPPβ release, nM)

Compound	IC50 (Human BACE2)	IC50 (SH-SY5Y cells; [1])	IC50 (Human BACE1)	IC50 (SH-SY5Y cells; read-out: IC50 Cell (sAPPβ release), SH-SY5Y cells, compounds incubated 16-17 h)	IC50 (SH-SY5Y cells; [2])
[2H]C1([2H])OC(N)=N[C@]12c1cc(C#CC(C)C)ccc1C[C@@]21CC[C@H](O)[C@@H](C)C1 (racemic) [Compound 11, (1S,3S,4S)-2″-amino-3-methyl-6′-(3-methylbut-1-yn-1-yl)-3′H,5″H-dispiro[cyclohexane-1,2′-indene-1′,4″-oxazol]-5″,5″-d2-4-ol and (1R,3R,4R)-2″-amino-3-methyl-6′-(3-methylbut-1-yn-1-yl)-3′H,5″H-dispiro[cyclohexane-1,2′-indene-1′,4″-oxazol]-5″,5″-d2-4-ol]	519 nM	0.9 nM	266 nM		
[2H]C1([2H])OC(N)=N[C@]12c1cc(-c3cncc(C4CC4)c3)ccc1C[C@]21CC[C@@H](OC)[C@H](C)C1 [Compound 1, (1R,1′R,3R,4R)-6′-(5-cyclopropylpyridin-3-yl)-4-methoxy-3-methyl-3′H,5″H-dispiro[cyclohexane-1,2′-indene-1′,4″-oxazol]-5″,5″-d2-2″-amine formate Salt]	144 nM	5.3 nM	239 nM		
[2H]C1([2H])OC(N)=N[C@]12c1cc(-c3cncc(C#CC)c3)ccc1C[C@]21CC[C@@H](OC)[C@H](C)C1 [Compound 2, (1R,1′R,3R,4R)-4-methoxy-3-methyl-6′-(5-(prop-1-yn-1-yl)pyridin-3-yl)-3′H,5″H-dispiro[cyclohexane-1,2′-indene-1′,4″-oxazol]-5″,5″-d2-2″-amine]	17 nM	0.27 nM	6.2 nM		
[2H]C1([2H])OC(N)=N[C@]12c1cc(-c3cncc(C#CC)c3)ccc1C[C@@]21CC[C@H](OC)[C@@H](C)C1 [Compound 3, (1S,1′R,3S,4S)-4-methoxy-3-methyl-6′-(5-(prop-1-yn-1-yl)pyridin-3-yl)-3′H,5″H-dispiro[cyclohexane-1,2′-indene-1′,4″-oxazol]-5″,5″-d2-2″-amine]	16 nM	0.2 nM	1.1 nM		
[2H]C1([2H])OC(N)=N[C@]12c1cc(-c3cncc(Cl)c3)ccc1C[C@@]21CC[C@H](OC)[C@@H](C)C1 [Compound 4, (1S,1′R,3S,4S)-6′-(5-chloropyridin-3-yl)-4-methoxy-3-methyl-3′H,5″H-dispiro[cyclohexane-1,2′-indene-1′,4″-oxazol]-5″,5″-d2-2″-amine]	37.8 nM	0.39 nM	6.8 nM		
[2H]C1([2H])OC(N)=N[C@]12c1cc(-c3cncc(C4CC4)c3)ccc1C[C@@]21CC[C@H](OC)[C@@H](C)C1 [Compound 6, (1S,1′R,3S,4S)-6′-(5-cyclopropylpyridin-3-yl)-4-methoxy-3-methyl-3′H,5″H-dispiro[cyclohexane-1,2′-indene-1′,4″-oxazol]-5″,5″-d2-2″-amine]	99 nM	2.2 nM	54 nM		
[2H]C1([2H])OC(N)=N[C@]12c1cc(-c3cncc(Cl)c3)ccc1C[C@]21CC[C@@H](OC)[C@H](C)C1 [Compound 7, (1R,1′R,3R,4R)-6′-(5-chloropyridin-3-yl)-4-methoxy-3-methyl-3′H,5″H-dispiro[cyclohexane-1,2′-indene-1′,4″-oxazol]-5″,5″-d2-2″-amine]	22.7 nM	0.45 nM	11.7 nM		
[2H]C1([2H])OC(N)=N[C@]12c1cc(-c3cccnc3)ccc1C[C@@]21CC[C@H](OC)[C@@H](C)C1 [Compound 8, (1S,1′R,3S,4S)-4-methoxy-3-methyl-6′-(pyridin-3-yl)-3′H,5″H-dispiro[cyclohexane-1,2′-indene-1′,4″-oxazol]-5″,5″-d2-2″-amine]	716 nM	0.76 nM	54.7 nM		
CO[C@H]1CC[C@]2(CC1)Cc1ccc(C#CC(C)C)cc1C21COC(N)=N1 (stereo partly drawn) [Compound 12, (1r,4r)-4-methoxy-6′-(3-methylbut-1-yn-1-yl)-3′H,5″H-dispiro[cyclohexane-1,2′-indene-1′,4″-oxazol]-2″-amine]	128 nM	5.9 nM	135 nM		
[2H]C1([2H])OC(N)=N[C@]12c1cc(-c3cccnc3)ccc1C[C@]21CC[C@@H](OC)[C@H](C)C1 [Compound 13, (1R,1′R,3R,4R)-4-methoxy-3-methyl-6′-(pyridin-3-yl)-3′H,5″H-dispiro[cyclohexane-1,2′-indene-1′,4″-oxazol]-5″,5″-d2-2″-amine]	217 nM	1.7 nM	161 nM		
CC#Cc1cncc(-c2ccc3c(c2)C2(COC(N)=N2)[C@]2(CC[C@H](OC)CC2)C3)c1 (stereo partly drawn) [Compound 15, (1r,4r)-4-methoxy-6′-(5-(prop-1-yn-1-yl)pyridin-3-yl)-3′H,5″H-dispiro[cyclohexane-1,2′-indene-1′,4″-oxazol]-2″-amine]	23 nM	1.1 nM	16 nM		
[2H]C1([2H])OC(N)=NC12c1cc(-c3cncc(Cl)c3)ccc1C[C@]21CC[C@@H](OC)CC1 (stereo partly drawn) [Compound 16, (1r,4r)-6′-(5-chloropyridin-3-yl)-4-methoxy-3′H,5″H-dispiro[cyclohexane-1,2′-indene-1′,4″-oxazol]-5″,5″-d2-2″-amine]	105 nM	3.8 nM	128 nM		
[2H]C1([2H])OC(N)=N[C@]12c1cc(-c3cc(F)cc(C#N)c3)ccc1C[C@]21CC[C@@H](OC)[C@H](C)C1 [Compound 17, 3-((1R,1′R,3R,4R)-2″-amino-4-methoxy-3-methyl-3′H,5″H-dispiro[cyclohexane-1,2′-indene-1′,4″-oxazol]-6′-yl-5″,5″-d2)-5-fluorobenzonitrile]	30.2 nM	2.1 nM	46.7 nM		
[2H]C1([2H])OC(N)=N[C@]12c1cc(-c3cc(F)cc(C#N)c3)ccc1C[C@@]21CC[C@H](OC)[C@@H](C)C1 [Compound 19, 3-((1S,1′R,3S,4S)-2″-amino-4-methoxy-3-methyl-3′H,5″H-dispiro[cyclohexane-1,2′-indene-1′,4″-oxazol]-6′-yl-5″,5″-d2)-5-fluorobenzonitrile]	43.6 nM	2 nM	244 nM		
[2H]C1([2H])OC(N)=N[C@]12c1cc(-c3cncc(C)c3)ccc1C[C@]21CC[C@@H](OC)[C@H](C)C1 [Compound 20, (1R,1′R,3R,4R)-4-methoxy-3-methyl-6′-(5-methylpyridin-3-yl)-3′H,5″H-dispiro[cyclohexane-1,2′-indene-1′,4″-oxazol]-5″,5″-d2-2″-amine]	186 nM	2.9 nM	143 nM		
[2H]C1([2H])OC(N)=NC12c1cc(-c3cc(Cl)cc(C#N)c3)ccc1C[C@@]21C[C@@H](C)[C@H](OC)[C@@H](C)C1 (stereo partly drawn) [Compound 52, 3-((1r,3R,4r,5S)-2″-amino-4-methoxy-3,5-dimethyl-3′H,5″H-dispiro[cyclohexane-1,2′-indene-1′,4″-oxazol]-6′-yl-5″,5″-d2)-5-chlorobenzonitrile]			4.7 nM	4.3 nM	
[2H]C1([2H])OC(N)=N[C@]12c1cc(-c3cccnc3)ccc1C[C@]21CC[C@@H](OC)CC1 [Compound 117, {(1r,1′R,4R)-4-methoxy-6′-(pyrimidin-3-yl)-3′H,5″H-dispiro[cyclohexane-1,2′-indene-1′,4″-oxazol]-5″,5″-d2-2″-amine}]			341 nM		7 nM
[2H]C1([2H])OC(N)=N[C@]12c1cc(-c3cncnc3)ccc1C[C@]21CC[C@@H](OC)CC1 [Compound 118, {(1r,1′R,4R)-4-methoxy-6′-(pyrimidin-5-yl)-3′H,5″H-dispiro[cyclohexane-1,2′-indene-1′,4″-oxazol]-5″,5″-d2-2″-amine}]			287 nM		6 nM
